For five molecules, IC50 and Selectivity Index results are on record in ChEMBL document CHEMBL4831534, “Design, Synthesis, and Monoamine Oxidase Inhibitory Activity of (+)-Cinchonaminone and Its Simplified Derivatives” (ACS Med Chem Lett, 2021).

In test [1] the target is T1, Amine oxidase [flavin-containing] A (Homo sapiens, UniProt P21397).
T1 sequence (P21397 whole entry): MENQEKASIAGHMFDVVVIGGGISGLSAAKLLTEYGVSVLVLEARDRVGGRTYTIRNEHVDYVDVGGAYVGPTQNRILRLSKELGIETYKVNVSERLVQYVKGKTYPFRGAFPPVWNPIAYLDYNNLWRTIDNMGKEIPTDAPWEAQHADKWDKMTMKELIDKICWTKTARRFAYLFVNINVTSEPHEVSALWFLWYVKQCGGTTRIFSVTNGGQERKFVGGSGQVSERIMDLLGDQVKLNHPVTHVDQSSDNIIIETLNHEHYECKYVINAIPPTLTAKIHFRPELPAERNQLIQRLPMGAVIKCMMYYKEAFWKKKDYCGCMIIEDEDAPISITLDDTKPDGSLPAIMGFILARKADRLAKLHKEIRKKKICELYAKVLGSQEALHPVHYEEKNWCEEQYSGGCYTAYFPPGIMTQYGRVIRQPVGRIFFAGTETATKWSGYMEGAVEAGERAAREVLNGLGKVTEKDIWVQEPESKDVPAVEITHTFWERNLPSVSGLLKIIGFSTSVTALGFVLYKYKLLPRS
In words: Inhibition of human recombinant MAO-A expressed in baculovirus infected BTI insect cells using luminogenic MAO substrate incubated for 1 hr by MAO-Glo assay.

The target in test [2] is T2, Amine oxidase [flavin-containing] B (Homo sapiens, UniProt P27338).
T2 sequence (P27338 whole entry): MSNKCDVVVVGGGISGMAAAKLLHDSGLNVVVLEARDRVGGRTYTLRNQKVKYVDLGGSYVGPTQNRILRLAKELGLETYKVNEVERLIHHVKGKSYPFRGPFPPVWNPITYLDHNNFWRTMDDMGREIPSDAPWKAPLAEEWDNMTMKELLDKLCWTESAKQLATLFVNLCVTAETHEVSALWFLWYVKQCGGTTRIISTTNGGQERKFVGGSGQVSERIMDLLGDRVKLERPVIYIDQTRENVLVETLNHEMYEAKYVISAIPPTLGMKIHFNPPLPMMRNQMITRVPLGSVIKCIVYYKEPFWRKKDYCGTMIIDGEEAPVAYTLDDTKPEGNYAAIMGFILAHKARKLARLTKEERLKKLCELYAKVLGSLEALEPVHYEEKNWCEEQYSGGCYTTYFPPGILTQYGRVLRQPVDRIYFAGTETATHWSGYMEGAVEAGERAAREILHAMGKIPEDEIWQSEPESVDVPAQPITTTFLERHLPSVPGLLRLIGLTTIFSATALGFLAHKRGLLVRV
In words: Inhibition of human recombinant MAO-B expressed in baculovirus infected BTI insect cells using luminogenic MAO substrate incubated for 1 hr by MAO-Glo assay.

A further test is filed under the species Homo sapiens. Briefly: Selectivity index, ratio of IC50 for human recombinant MOA-A expressed in baculovirus infected BTI insect cells to IC50 for MAO-B expressed in baculovirus infected BTI insect cells. The conditions noted are these: time 1.0 hrs.

The term IC50 denotes the concentration at which inhibition is half-maximal.

Turning to `Cc1c(C(=O)CC2CCNCC2)[nH]c2ccccc12`, the half-inhibitory concentration (IC50) in test [1] came to 82.5 µM; in test [2], 121 µM.

Take `O=C(CC1CCNCC1)c1[nH]c2ccccc2c1CCO`: the IC50 in test [1] and in test [2] was greater than 1000 µM throughout.

On to `C=C[C@H]1CNCC[C@H]1CC(=O)c1[nH]c2ccccc2c1CCO`, for which the IC50 in test [1] is greater than 1000 µM; in test [2] it was 412 µM.

Turning to `O=C(CC1CCNCC1)c1cc2ccccc2[nH]1`, the concentration for half-maximal inhibition (IC50) stood at 720 µM in test [1] and 66.6 µM in test [2]. In addition, the Selectivity Index in the test listed under Homo sapiens was found to be 11.

Regarding `C=C[C@@H]1CNCC[C@@H]1CC(=O)c1[nH]c2ccccc2c1CCO`, the concentration for half-maximal inhibition (IC50) in test [1] is greater than 1000 µM; in test [2] it was 488 µM.
